Test results published in patent publication US5760001A, “Cytokine restraining agents and methods of use in pathologies and conditions associated with altered cytokine levels” (Trega Biosciences, Inc., priority 1995, dated 1998).

Assays:
Type in all cases: in vivo
male Sprague-Dawley rats [1] = assay: Glomerulonephritis (nephrotoxic serum), albuminuria; conditions: EX-2 100 μg/kg per injection, 3 times per day; nephrotoxic serum iv
Method: Male Sprague-Dawley rats (weight 194-248 g) were immunized by subcutaneous injection of 1 mg normal rabbit IgG (Sigma Chemical Co.) in Freund's complete adjuvant (Sigma Chemical Co.). EX-2 was administered 3 times per day (100 μg/kg per injection) throughout the duration of the experiment. Seven days later, the rats were injected with 1.5 ml of nephrotoxic serum iv via dorsal penile vein. Urine, plasma, and serum were collected before injection of nephrotoxic serum at 4, 6, 24, 48, and 96 hr thereafter. […] Albuminuria was quantified by immunoelectrophoresis.

male Sprague-Dawley rats [2] = assay: Streptozotocin-induced diabetes; conditions: STZ 65 mg/kg iv; EX-2 150 μg/kg every 8 hr for 72 hr
Method: Male Sprague-Dawley rats were given 65 mg/kg of streptozotocin (STZ) intravenously through the tall vein. Rats were divided into two groups. The first group was administered EX-2, 150 μg/kg every 8 hr for 72 hr and the second group was a control. Blood samples were withdrawn under ether anesthesia every 8 hr for the first 72 hr, then every 12 hr or 24 hr until the end of the observation period. Plasma samples were assayed for glucose using a glucose assay kit (Trinder, Sigma Chemical Co.). As shown in Table VI below EX-2 effect a 72% reduction in blood glucose levels.

adult female Balb/c mice = assay: Carageenan-induced paw swelling; conditions: 1 μg/mouse; measured at the 2 hr time point
Method: Carageenan-induced paw swelling was induced using a modification of the methods of Hiltz and Lipton, Peptides 11:979-982 (1990); Vinegar et al., Fed. Proc. 46:118-1.26 (1987); and Vinegar et al., J. Pharmacol. Expt. Therap. 166:96-103 (1969), each of which is incorporated herein by reference. Briefly, adult female Balb/c mice were anesthetized by IP injection of 7 mg/kg ketoamine and 0.6 mg/kg rompun. Foot pad thickness was measured using a spring loaded micrometer (Swiss Precision Instruments). Foot pad thickness was expressed in units of 1/100 inch. After baseline measurements were obtained, mice were injected into a hind foot pad with either 0.2 ml physiologic saline (control) or varying doses of EX-2 or EX-3 in 0.2 ml saline (treated). The first injection was followed immediately by injection of 0.02 ml of 0.15% κ-carageenan (Sigma Chemical Co.; St. Louis, Mo.).
Hind foot pad thickness was measured hourly for six hr, the change in thickness was determined and the percent reduction in swelling due to treatment with EX-2 was calculated.

Male Shelton rabbits = assay: Morphine-induced respiratory depression; conditions: 10 + 20 + 20 μg/kg/rabbit iv; at end of experiment (80 min)
Method: Male Shelton rabbits (3-4 kg) were restrained and fitted around the thorax, just behind the front limbs, with a respiration transducer (Model F-RCT; Grass Instruments; Quincy Mass.). The transducer was connected to a grass polygraph via an EKG cable. An intravenous line was established for drug administration by cannulating the marginal ear vein using a 25G butterfly needle.
Rabbit breathing was allowed to stabilize, then. morphine sulfate (2 mg/kg in 0.5 ml saline) was administered by intravenous (iv) injection and respiratory rate and depth were monitored for 10 min. A second dose of morphine was administered, then, after 10 min, EX-2 or EX-3 (10 μg/kg in 0.5 ml saline) was administered, iv, and rabbits were monitored for 20 min. Two additional doses of EX-2 or EX-3 (20 μg/kg in 1.0 ml saline) were administered at 20 min intervals, i.e., 40 min and 60 min after the first morphine injection.
Results were calculated as the percent change from baseline values and are expressed as the difference of the mean value of the treated group minus the mean value of the control group at the end of the experiment (80 min).

female Balb/c mice = assay: Arachidonic acid-induced ear swelling; conditions: 100 μg/mouse IP 30 min prior to AA; 60 min after AA application
Method: Experiments were performed using female Balb/c mice weighing 18-23 grams. Saline or 100 μg EX-2 or EX-3 was administered IP, 30 min prior to topical application of arachidonic acid (AA). A 10 μl pipet was used to apply 10 μl AA solution (100 mg/ml ethanol; Calbiochem-Novabiochem; San Diego Calif.) to the inner and outer surfaces of the right ear of each mouse. Ten μl ethanol, alone, was applied to the inner and outer surface of the left ear of each mouse.
Ear thickness was measured with a hand-held spring loaded caliper immediately before and 60 min after AA application. Increase in ear thickness was calculated by subtracting the change observed in the control ear from the change observed in AA-treated ear. The value for each group (saline and control) is the average of the swelling observed in the individual mice in each group. The percent reduction of swelling is based on the swelling observed in the saline control group.

IL-6 = assay: Reduction of LPS-induced interleukin-6 levels in mice; conditions: 300 μg/mouse; LPS treated mice; vs untreated control mice
Method: Balb/c mice were grouped and treated as described in Example III, above. Blood samples were obtained from the orbital sinus at various times up to six hr and serum was collected and diluted as described above. A 100 μl aliquot was assayed for IL-6 levels using an IL-6-specific ELISA by a modification of the method of Starnes et al., J. Immunol. 145:4185-4194 (1990), which is incorporated herein by reference.
The mean (±SEM) IL-6 level in six mice from each group was determined and the percent reduction in IL-6 was calculated.

Substance: Ac-Nle-Gln-His-(D)Phe-Arg-(D)Trp-Gly-NH2 [EX-2]
- Glomerulonephritis: Albumin (mg/day), % Reduction of induced increase (male Sprague-Dawley rats [1]): 62%
- STZ Diabetes: Blood Glucose (mg/dl), % Reduction of induced increase (male Sprague-Dawley rats [2]): 72%
- Reduction in Carageenan-induced Paw Swelling (adult female Balb/c mice): 45%
- Reduction in Morphine-induced Respiratory Depression (Male Shelton rabbits): 50%
- Reduction in arachidonic acid-induced Ear Swelling (female Balb/c mice): 72%
- Reduction in IL-6 levels (IL-6): 60%
